Measurements from ChEMBL document CHEMBL3045393, “Aryldiones incorporating a [1,4,5]oxadiazepane ring. Part I: Discovery of the novel cereal herbicide pinoxaden” (Bioorg Med Chem, 2009).

Experiments:
Setaria faberi [1] = experiment: Post-emergence herbicidal activity against Setaria faberi (Giant Foxtail) at 30 g a.i./ha measured after 21 days in presence of 0.2% X-77 adjuvant; format: functional
Lolium perenne [2] = experiment: Post-emergence herbicidal activity against Lolium perenne (perennial ryegrass) at 125 g a.i./ha measured after 21 days in presence of 0.2% X-77 adjuvant; format: functional
Setaria faberi [3] = experiment: Post-emergence herbicidal activity against Setaria faberi (Giant Foxtail) at 125 g a.i./ha measured after 21 days in presence of 0.2% X-77 adjuvant; format: functional
Avena fatua [4] = experiment: Post-emergence herbicidal activity against Avena fatua at 125 g a.i./ha measured after 21 days in presence of 0.2% X-77 adjuvant; format: functional
Lolium perenne [5] = experiment: Post-emergence herbicidal activity against Lolium perenne (perennial ryegrass) at 30 g a.i./ha measured after 21 days in presence of 1% Merge adjuvant; format: functional
Alopecurus myosuroides [6] = experiment: Post-emergence herbicidal activity against Alopecurus myosuroides at 30 g a.i./ha measured after 21 days in presence of 1% Merge adjuvant; format: functional
Avena fatua [7] = experiment: Post-emergence herbicidal activity against Avena fatua at 30 g a.i./ha measured after 21 days in presence of 1% Merge adjuvant; format: functional
Lolium perenne [8] = experiment: Post-emergence herbicidal activity against Lolium perenne (perennial ryegrass) at 30 g a.i./ha measured after 21 days in presence of 0.2% X-77 adjuvant; format: functional
Avena fatua [9] = experiment: Post-emergence herbicidal activity against Avena fatua at 30 g a.i./ha measured after 21 days in presence of 0.2% X-77 adjuvant; format: functional
Alopecurus myosuroides [10] = experiment: Post-emergence herbicidal activity against Alopecurus myosuroides at 30 g a.i./ha measured after 21 days in presence of 0.2% X-77 adjuvant; format: functional
Triticum aestivum [11] = experiment: Phytotoxicity against Triticum aestivum (wheat) at 30 g a.i./ha applied post-emergence measured after 21 days in presence of 1% Merge adjuvant; format: organism-based; conditions: in vivo, other, 504 h
Hordeum vulgare [12] = experiment: Phytotoxicity against Hordeum vulgare (barley) at 30 g a.i./ha applied post-emergence measured after 21 days in presence of 1% Merge adjuvant; format: organism-based; conditions: in vivo, other, 504 h
Triticum aestivum [13] = experiment: Phytotoxicity against Triticum aestivum (wheat) at 30 g a.i./ha applied post-emergence measured after 21 days in presence of 0.2% X-77 adjuvant; format: organism-based; conditions: in vivo, other, 504 h
Hordeum vulgare [14] = experiment: Phytotoxicity against Hordeum vulgare (barley) at 30 g a.i./ha applied post-emergence measured after 21 days in presence of 0.2% X-77 adjuvant; format: organism-based; conditions: in vivo, other, 504 h
Alopecurus myosuroides [15] = experiment: Post-emergence herbicidal activity against Alopecurus myosuroides at 125 g a.i./ha measured after 21 days in presence of 0.2% X-77 adjuvant; format: functional
Triticum aestivum [16] = experiment: Phytotoxicity against Triticum aestivum (wheat) at 125 g a.i./ha applied post-emergence measured after 21 days in presence of 0.2% X-77 adjuvant; format: organism-based; conditions: in vivo, other, 504 h
Hordeum vulgare [17] = experiment: Phytotoxicity against Hordeum vulgare (barley) at 125 g a.i./ha applied post-emergence measured after 21 days in presence of 0.2% X-77 adjuvant; format: organism-based; conditions: in vivo, other, 504 h
Setaria faberi [18] = experiment: Post-emergence herbicidal activity against Setaria faberi (Giant Foxtail) at 30 g a.i./ha measured after 21 days in presence of 1% Merge adjuvant; format: functional

## CCc1cccc(CC)c1C1C(=O)N2CCCCN2C1=O
Setaria faberi [1]
  Activity: 40%
Lolium perenne [2]
  Activity: 40%
Setaria faberi [3]
  Activity: 40%
Avena fatua [4]
  Activity: 80%
Lolium perenne [5]
  Activity: 80%
Alopecurus myosuroides [6]
  Activity: 100%
Avena fatua [7]
  Activity: 100%
Lolium perenne [8]
  Activity: 50%
Avena fatua [9]
  Activity: 90%
Alopecurus myosuroides [10]
  Activity: 80%
Triticum aestivum [11]
  Activity: 80%
Hordeum vulgare [12]
  Activity: 80%
Triticum aestivum [13]
  Activity: 40%
Hordeum vulgare [14]
  Activity: 10%
Alopecurus myosuroides [15]
  Activity: 60%
Triticum aestivum [16]
  Activity: 0%
Hordeum vulgare [17]
  Activity: 0%
Setaria faberi [18]
  Activity: 90%
